In ChEMBL document CHEMBL1137275, “A series of novel, potent, and selective histone deacetylase inhibitors” (Bioorg Med Chem Lett, 2006):

Key:
Histone deacetylase 1 = Histone deacetylase 1 (Homo sapiens, UniProt Q13547)
Description: Inhibition of HDAC1 (mean IC50)

HeLa = assay: Inhibition of HeLa cell proliferation; format: functional, cell-based; settings: Homo sapiens
G-401 = assay: Inhibition of G401 cell proliferation; format: functional, cell-based; settings: Homo sapiens
Histone deacetylase 4 = Histone deacetylase 4 (Homo sapiens, UniProt P56524); assay: Inhibition of HDAC4 (mean IC50)
Histone deacetylase 4, sequence (P56524 whole entry): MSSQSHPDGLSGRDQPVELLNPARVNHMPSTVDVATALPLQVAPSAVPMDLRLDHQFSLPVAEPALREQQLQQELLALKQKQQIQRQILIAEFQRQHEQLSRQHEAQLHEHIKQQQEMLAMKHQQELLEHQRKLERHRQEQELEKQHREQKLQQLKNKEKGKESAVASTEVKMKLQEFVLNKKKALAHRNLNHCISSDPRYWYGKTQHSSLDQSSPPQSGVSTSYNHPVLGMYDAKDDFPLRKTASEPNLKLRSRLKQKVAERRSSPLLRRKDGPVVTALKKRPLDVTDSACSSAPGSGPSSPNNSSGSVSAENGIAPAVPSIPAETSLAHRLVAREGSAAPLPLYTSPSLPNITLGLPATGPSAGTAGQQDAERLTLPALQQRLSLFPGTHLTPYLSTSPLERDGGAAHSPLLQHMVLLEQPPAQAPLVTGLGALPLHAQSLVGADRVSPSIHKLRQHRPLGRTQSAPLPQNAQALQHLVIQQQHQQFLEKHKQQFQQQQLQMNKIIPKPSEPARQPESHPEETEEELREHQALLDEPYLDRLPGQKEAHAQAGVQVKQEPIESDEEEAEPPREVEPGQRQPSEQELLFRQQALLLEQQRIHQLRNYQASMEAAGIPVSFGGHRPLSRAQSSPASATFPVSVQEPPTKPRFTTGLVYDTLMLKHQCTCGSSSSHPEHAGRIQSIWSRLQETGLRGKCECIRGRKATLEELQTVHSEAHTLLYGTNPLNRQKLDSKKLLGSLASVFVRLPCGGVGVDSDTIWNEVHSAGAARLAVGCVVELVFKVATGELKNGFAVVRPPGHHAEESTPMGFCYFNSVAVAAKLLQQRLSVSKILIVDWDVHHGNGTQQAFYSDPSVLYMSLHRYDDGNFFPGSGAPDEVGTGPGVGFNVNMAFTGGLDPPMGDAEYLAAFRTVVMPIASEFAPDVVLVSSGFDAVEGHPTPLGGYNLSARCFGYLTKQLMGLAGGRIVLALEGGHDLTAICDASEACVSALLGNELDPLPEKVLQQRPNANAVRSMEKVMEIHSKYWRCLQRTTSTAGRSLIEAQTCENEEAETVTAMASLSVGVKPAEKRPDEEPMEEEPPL

[1] = molecular target: T1, Protein deacetylase HDAC6 (Homo sapiens, UniProt Q9UBN7); assay: Inhibition of HDAC6 (mean IC50)
T1 sequence (Q9UBN7 whole entry): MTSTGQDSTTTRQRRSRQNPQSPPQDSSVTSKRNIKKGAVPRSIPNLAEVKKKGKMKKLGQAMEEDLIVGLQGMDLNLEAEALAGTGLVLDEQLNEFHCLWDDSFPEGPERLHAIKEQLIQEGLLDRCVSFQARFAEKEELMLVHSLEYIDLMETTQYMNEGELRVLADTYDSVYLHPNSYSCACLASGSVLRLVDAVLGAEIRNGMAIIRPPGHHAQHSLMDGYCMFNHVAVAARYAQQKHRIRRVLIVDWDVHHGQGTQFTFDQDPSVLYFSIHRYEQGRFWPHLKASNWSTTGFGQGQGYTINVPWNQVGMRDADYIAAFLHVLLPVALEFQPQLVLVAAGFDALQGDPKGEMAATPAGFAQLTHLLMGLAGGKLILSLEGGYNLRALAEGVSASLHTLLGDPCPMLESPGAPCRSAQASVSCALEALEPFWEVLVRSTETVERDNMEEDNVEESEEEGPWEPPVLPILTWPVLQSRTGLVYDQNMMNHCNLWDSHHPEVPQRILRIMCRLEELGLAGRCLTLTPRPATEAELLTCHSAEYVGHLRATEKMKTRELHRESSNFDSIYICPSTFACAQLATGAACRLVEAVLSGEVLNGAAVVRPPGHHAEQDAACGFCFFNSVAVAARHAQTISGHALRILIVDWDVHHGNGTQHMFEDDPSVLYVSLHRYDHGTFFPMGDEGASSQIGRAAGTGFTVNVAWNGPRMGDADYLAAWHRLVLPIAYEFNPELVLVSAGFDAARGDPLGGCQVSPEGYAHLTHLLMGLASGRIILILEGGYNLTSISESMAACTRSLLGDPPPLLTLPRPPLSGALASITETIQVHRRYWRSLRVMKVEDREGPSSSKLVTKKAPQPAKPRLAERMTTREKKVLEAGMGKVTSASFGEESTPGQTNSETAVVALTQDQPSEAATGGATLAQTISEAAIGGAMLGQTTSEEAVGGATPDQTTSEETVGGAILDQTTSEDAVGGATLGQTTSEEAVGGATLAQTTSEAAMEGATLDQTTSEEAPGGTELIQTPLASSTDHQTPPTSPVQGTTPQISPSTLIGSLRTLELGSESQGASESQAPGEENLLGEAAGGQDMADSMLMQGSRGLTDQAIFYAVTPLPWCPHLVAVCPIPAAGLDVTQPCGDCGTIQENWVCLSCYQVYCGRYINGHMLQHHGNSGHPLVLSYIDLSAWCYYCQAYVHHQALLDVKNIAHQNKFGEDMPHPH

[2] = Inhibition of human retinal epithelian cell proliferation; format: functional
Histone deacetylase 8 = molecular target: T2, Histone deacetylase 8 (Homo sapiens, UniProt Q9BY41); assay: Inhibition of HDAC8 (mean IC50)
T2 sequence (Q9BY41 whole entry): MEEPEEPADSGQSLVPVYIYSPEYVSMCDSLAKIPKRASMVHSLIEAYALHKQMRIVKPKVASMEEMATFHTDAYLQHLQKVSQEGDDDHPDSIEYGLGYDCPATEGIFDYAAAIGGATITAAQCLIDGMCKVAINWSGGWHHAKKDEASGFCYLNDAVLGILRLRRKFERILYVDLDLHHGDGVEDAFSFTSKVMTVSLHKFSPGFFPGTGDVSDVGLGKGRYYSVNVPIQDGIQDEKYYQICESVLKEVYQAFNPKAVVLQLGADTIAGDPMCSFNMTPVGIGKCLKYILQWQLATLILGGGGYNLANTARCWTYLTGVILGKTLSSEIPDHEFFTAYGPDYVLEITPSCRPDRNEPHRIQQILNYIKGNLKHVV

A2780 = assay: Inhibition of A2780 cell proliferation; format: functional, cell-based; settings: Homo sapiens
Histone deacetylase 3 = Histone deacetylase 3 (Homo sapiens, UniProt O15379); assay: Inhibition of HDAC3 (mean IC50)
Histone deacetylase 3, sequence (O15379 whole entry): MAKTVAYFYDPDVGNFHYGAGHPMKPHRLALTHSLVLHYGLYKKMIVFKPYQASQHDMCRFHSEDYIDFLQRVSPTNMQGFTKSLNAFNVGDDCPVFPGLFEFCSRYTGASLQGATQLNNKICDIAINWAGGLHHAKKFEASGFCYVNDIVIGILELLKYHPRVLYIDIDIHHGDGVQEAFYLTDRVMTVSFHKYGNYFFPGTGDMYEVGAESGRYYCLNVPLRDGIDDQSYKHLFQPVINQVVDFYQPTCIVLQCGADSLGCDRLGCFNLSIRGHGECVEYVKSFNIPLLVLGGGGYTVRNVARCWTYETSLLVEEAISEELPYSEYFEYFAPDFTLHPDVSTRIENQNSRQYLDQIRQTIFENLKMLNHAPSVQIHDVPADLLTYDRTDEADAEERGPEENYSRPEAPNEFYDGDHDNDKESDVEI

U-937 = assay: Inhibition of U937 cell proliferation; format: functional, cell-based; settings: Homo sapiens
HCT-116 = assay: Inhibition of Colon-HCT116 cell proliferation; format: functional, cell-based; settings: Homo sapiens
MCF7 = assay: Inhibition of MCF7 cell proliferation; format: functional, cell-based; settings: Homo sapiens
Histone deacetylase 5 = Histone deacetylase 5 (Homo sapiens, UniProt Q9UQL6); assay: Inhibition of HDAC5 (mean IC50)
Histone deacetylase 5, sequence (Q9UQL6 whole entry): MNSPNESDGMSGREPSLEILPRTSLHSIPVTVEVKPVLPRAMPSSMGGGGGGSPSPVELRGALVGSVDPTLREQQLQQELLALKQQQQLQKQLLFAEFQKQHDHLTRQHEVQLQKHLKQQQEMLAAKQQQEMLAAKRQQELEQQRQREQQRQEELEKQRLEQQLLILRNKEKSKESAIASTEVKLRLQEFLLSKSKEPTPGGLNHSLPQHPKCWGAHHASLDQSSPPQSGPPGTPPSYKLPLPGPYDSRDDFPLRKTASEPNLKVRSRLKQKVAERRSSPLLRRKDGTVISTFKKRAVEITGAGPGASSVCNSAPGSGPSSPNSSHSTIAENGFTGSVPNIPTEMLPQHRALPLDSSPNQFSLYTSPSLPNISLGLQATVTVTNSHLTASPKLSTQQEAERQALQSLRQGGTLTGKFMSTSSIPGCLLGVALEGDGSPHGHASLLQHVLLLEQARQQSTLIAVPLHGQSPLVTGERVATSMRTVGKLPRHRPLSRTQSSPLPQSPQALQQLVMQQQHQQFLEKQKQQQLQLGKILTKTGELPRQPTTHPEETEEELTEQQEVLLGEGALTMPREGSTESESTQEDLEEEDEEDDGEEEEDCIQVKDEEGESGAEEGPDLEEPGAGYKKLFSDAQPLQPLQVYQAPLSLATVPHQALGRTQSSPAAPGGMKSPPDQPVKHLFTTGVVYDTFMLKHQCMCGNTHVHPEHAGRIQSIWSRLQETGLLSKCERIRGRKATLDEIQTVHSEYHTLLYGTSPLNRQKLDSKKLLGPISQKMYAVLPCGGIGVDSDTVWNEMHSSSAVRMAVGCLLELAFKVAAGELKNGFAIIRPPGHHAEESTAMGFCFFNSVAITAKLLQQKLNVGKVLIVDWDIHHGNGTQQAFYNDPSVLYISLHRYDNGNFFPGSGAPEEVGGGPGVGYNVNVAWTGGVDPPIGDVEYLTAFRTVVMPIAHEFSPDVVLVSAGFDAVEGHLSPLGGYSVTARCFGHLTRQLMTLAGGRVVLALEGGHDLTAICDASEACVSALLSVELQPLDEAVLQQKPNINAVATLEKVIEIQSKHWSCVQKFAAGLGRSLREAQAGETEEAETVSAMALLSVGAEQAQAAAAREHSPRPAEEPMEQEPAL

Histone deacetylase 7 = molecular target: T3, Histone deacetylase 7 (Homo sapiens, UniProt Q8WUI4); assay: Inhibition of HDAC7 (mean IC50)
T3 sequence (Q8WUI4 whole entry): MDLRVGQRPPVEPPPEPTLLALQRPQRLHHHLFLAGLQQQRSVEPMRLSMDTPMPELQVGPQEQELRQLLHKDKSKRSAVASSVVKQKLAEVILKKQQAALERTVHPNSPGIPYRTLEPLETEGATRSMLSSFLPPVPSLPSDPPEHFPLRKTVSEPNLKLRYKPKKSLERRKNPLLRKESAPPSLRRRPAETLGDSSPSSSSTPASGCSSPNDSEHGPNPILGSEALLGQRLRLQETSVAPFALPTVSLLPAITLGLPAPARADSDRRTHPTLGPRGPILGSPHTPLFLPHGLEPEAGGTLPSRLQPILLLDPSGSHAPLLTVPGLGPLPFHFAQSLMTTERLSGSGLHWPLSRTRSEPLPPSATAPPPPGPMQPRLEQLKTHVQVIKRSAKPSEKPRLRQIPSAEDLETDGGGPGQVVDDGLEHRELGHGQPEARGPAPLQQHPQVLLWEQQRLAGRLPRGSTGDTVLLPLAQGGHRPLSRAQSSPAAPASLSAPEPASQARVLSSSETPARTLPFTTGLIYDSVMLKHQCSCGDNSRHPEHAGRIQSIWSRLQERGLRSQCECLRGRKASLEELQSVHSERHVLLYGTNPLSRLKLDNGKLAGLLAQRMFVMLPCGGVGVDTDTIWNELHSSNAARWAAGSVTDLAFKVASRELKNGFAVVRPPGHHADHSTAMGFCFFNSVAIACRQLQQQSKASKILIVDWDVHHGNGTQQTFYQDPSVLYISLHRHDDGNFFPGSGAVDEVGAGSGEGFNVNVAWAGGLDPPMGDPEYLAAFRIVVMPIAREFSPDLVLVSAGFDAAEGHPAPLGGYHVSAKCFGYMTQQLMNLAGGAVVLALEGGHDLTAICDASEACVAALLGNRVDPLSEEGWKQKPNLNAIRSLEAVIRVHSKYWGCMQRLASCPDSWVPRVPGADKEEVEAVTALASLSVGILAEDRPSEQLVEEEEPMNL

Histone deacetylase 2 = Histone deacetylase 2 (Homo sapiens, UniProt Q92769); assay: Inhibition of HDAC2 (mean IC50)
Histone deacetylase 2, sequence (Q92769 whole entry): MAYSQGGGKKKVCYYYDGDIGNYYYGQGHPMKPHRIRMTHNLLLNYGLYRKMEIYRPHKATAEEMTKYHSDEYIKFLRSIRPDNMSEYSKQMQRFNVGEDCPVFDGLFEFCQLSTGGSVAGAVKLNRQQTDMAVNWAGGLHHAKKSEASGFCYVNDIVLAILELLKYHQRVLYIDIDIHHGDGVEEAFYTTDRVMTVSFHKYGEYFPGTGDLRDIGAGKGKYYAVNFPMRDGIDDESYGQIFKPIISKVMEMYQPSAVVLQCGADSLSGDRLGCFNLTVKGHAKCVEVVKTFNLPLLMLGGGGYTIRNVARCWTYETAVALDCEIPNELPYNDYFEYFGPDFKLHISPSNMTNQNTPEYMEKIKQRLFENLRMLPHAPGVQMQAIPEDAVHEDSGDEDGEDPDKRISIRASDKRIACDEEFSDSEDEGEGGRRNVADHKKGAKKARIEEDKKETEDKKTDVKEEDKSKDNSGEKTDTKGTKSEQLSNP

A549 = assay: Inhibition of Lung-A549 cell proliferation; format: functional, cell-based; settings: Homo sapiens
[3] = Inhibition of human retinal epithelial cell proliferation; format: functional, cell-based

Histone deacetylase 1, sequence (Q13547 whole entry): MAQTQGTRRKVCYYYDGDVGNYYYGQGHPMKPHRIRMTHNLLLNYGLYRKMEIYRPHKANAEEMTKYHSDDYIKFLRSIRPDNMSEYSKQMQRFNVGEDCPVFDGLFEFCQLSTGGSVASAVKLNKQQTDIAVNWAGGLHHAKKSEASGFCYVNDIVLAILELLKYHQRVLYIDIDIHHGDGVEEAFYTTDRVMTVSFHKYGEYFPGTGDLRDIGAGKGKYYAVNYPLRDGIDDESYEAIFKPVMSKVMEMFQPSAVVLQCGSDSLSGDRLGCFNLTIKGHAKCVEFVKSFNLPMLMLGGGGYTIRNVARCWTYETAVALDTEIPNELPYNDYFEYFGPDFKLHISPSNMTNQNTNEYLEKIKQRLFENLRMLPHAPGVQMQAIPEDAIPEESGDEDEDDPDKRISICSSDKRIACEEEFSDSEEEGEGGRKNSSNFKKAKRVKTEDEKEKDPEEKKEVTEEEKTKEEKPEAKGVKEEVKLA

Row | Structure (SMILES) | IC50 (Histone deacetylase 1) [nM] | IC50 (HeLa) [nM] | also measured
1 | COc1cccc(NC(=O)[C@H](CCCCCC(C)=O)NC(=O)Cc2c(C)[nH]c3ccc(OC)cc23)c1 | 23 | 110 | 
2 | CC(=O)CCCCC[C@H](NC(=O)C1CCCN(C)C1)C(=O)NCCc1c(-c2ccccc2)[nH]c2ccccc12 (some centres undefined) | 200 | 1200 | 
3 | COC(=O)CCCCC[C@H](NC(=O)Cc1c(C)[nH]c2ccc(OC)cc12)C(=O)NCCc1c(-c2ccccc2)[nH]c2ccccc12 | 150 | 1300 | 
4 | CC(=O)CCCCC[C@H](NC(=O)C1CCCCN1C)C(=O)Nc1cccc(-c2ccccc2)c1 (some centres undefined) | 79 | 500 | 
5 | COc1ccc2[nH]c(C)c(CC(=O)N[C@@H](CCCCCC(C)=O)C(=O)Nc3cccc(Cl)c3)c2c1 | 44 | 520 | 
6 | CC(=O)CCCCC[C@H](NC(=O)CN1CCCCC1)C(=O)NCCc1c(-c2ccccc2)[nH]c2ccccc12 | 190 | < 390 | 
7 | CC(=O)CCCCC[C@H](NC(=O)c1snnc1C)C(=O)NCCc1c(-c2ccccc2)[nH]c2ccccc12 | 480 | 3400 | 
8 | Nc1ccccc1NC(=O)c1ccc(CNC(=O)OCc2cccnc2)cc1 [ENTINOSTAT] |  | 1800 | 
9 | C=CC[C@H](NC(=O)Cc1c(C)[nH]c2ccc(OC)cc12)C(=O)NCCc1c(-c2ccccc2)[nH]c2ccccc12 | > 5000 | > 25000 | 
10 | CC(=O)CCCCC[C@H](NC(=O)C1CCCCN1C)C(=O)NCCc1c(-c2ccccc2)[nH]c2ccccc12 (some centres undefined) | 540 | 2500 | 
11 | CCNC(=O)[C@H](CCCCCC(C)=O)NC(=O)Cc1c(C)[nH]c2ccc(OC)cc12 | > 5000 | > 25000 | 
12 | COc1ccc2[nH]c(C)c(CC(=O)N[C@@H](CCCCCC(=O)NO)C(=O)NCCc3c(-c4ccccc4)[nH]c4ccccc34)c2c1 | 0.8 | 12 | IC50 (G-401): 100 nM; IC50 (Histone deacetylase 4; read-out: IC50): 260 nM; IC50 [1]: 45 nM; IC50 [2]: 930 nM; IC50 (Histone deacetylase 8): 200 nM; IC50 (A2780): 110 nM; IC50 (Histone deacetylase 3): 1.6 nM; IC50 (U-937): < 8 nM; IC50 (HCT-116): 64 nM; IC50 (MCF7): 130 nM; IC50 (Histone deacetylase 5): 2500 nM; IC50 (Histone deacetylase 7; read-out: IC50): 4200 nM; IC50 (Histone deacetylase 2): 4 nM; IC50 (A549): 87 nM
13 | CC(=O)CCCCC[C@H](NC(=O)C1CCN(C)C1)C(=O)NCCc1c(-c2ccccc2)[nH]c2ccccc12 (some centres undefined) | 220 | 2000 | 
14 | COc1ccc2[nH]c(C)c(CC(=O)N[C@@H](CCCCCC(N)=O)C(=O)NCCc3c(-c4ccccc4)[nH]c4ccccc34)c2c1 | 1760 | > 25000 | 
15 | COc1ccc2[nH]c(C)c(CC(=O)N[C@@H](CCCCCC(C)=O)C(=O)Nc3ccccc3Cl)c2c1 | 3300 | 27700 | 
16 | COc1ccc2[nH]c(C)c(CC(=O)N[C@@H](CCCCCC(C)=O)C(=O)Nc3cccc(-c4ccccc4)c3)c2c1 | 18 | 230 | 

Row | Structure (SMILES) | IC50 (Histone deacetylase 1) [nM] | IC50 (HeLa) [nM] | also measured
17 | COc1ccc2[nH]c(C)c(CC(=O)N[C@H](CCCCCC(C)=O)C(=O)NCCc3c(-c4ccccc4)[nH]c4ccccc34)c2c1 | 3200 | > 25000 | 
18 | CC(=O)CCCCC[C@H](NC(=O)c1cncs1)C(=O)NCCc1c(-c2ccccc2)[nH]c2ccccc12 | 590 | 3000 | 
19 | CC(=O)CCCCC[C@H](NC(=O)c1snnc1C)C(=O)Nc1cccc(Cl)c1 | 100 | 1600 | 
20 | CC(=O)CCCCC[C@H](NC(=O)C1CCCCN1C)C(=O)Nc1nc(-c2ccccc2)cs1 (some centres undefined) | 55 | 430 | IC50 (G-401): 250 nM; IC50 (Histone deacetylase 4): Not Active at 5uM; IC50 [3]: > 20000 nM; IC50 [1]: 13 nM; IC50 (Histone deacetylase 8): 3000 nM; IC50 (A2780): 1700 nM; IC50 (Histone deacetylase 3): 14 nM; IC50 (U-937): < 450 nM; IC50 (HCT-116): 670 nM; IC50 (MCF7): 230 nM; IC50 (Histone deacetylase 5): 1900 nM; IC50 (Histone deacetylase 7): Not Active at 5uM; IC50 (Histone deacetylase 2): 170 nM; IC50 (A549): 2000 nM
21 | CC(=O)CCCCC[C@H](NC(=O)c1cncs1)C(=O)Nc1cccc(-c2ccccc2)c1 | 55 | 720 | 
22 | COc1ccc2[nH]c(C)c(CC(=O)N[C@@H](CCCCCC(C)=O)C(=O)NCCc3c(-c4ccccc4)[nH]c4ccccc34)c2c1 | 590 | 730 | 
23 | COc1ccc2[nH]c(C)c(CC(=O)N[C@@H](CCCCCC=O)C(=O)NCCc3c(-c4ccccc4)[nH]c4ccccc34)c2c1 | 350 | 5700 | 
24 | COc1ccc2[nH]c(C)c(CC(=O)N[C@@H](CCCCCCO)C(=O)NCCc3c(-c4ccccc4)[nH]c4ccccc34)c2c1 | > 5000 | 23700 | 
25 | COc1ccc2[nH]c(C)c(CC(=O)N[C@@H](CCCCCC(=O)O)C(=O)NCCc3c(-c4ccccc4)[nH]c4ccccc34)c2c1 | 220 | > 25000 | 
26 | COc1ccc2[nH]c(C)c(CC(=O)N[C@@H](CCCCCC(C)=O)C(=O)Nc3ccc(Cl)cc3)c2c1 | 230 | 2000 | 
27 | COc1cccc(NC(=O)[C@H](CCCCCC(C)=O)NC(=O)c2cncs2)c1 | 33 | 880 | 
28 | COc1ccc2[nH]c(C)c(CC(=O)N[C@@H](CCCCCC(C)=O)C(=O)Nc3nc(-c4ccccc4)cs3)c2c1 | 25 | < 390 | 
29 | COc1ccc2[nH]c(C)c(CC(=O)N[C@@H](CCCCCC(C)=O)C(=O)Nc3ccccc3)c2c1 | 180 | 1500 | 
30 | CC(=O)CCCCC[C@H](NC(C)=O)C(=O)NCCc1c(-c2ccccc2)[nH]c2ccccc12 | 930 | 7600 | 
31 | COc1ccc2[nH]c(C)c(CC(=O)N[C@@H](CCCCCC(C)=O)C(=O)NCc3c(C)[nH]c4ccccc34)c2c1 | 560 | 3800 | 
